# According to PMC9501280, “Anti-Inflammatory Activity of Soluble Epoxide Hydrolase Inhibitors Based on Selenoureas Bearing an Adamantane Moiety” (International Journal of Molecular Sciences, 2022):
# Entries after “also recorded” stand apart in the source; their conditions may differ. Where two headings read alike, the source gives them in different places.
# Assays:
# [1] = molecular target: T1, human recombinant sEH (Homo sapiens, UniProt P34913); experiment: Human sEH inhibition, kinetic fluorescent assay; assay type: biochemical
# T1 sequence (P34913 1-555): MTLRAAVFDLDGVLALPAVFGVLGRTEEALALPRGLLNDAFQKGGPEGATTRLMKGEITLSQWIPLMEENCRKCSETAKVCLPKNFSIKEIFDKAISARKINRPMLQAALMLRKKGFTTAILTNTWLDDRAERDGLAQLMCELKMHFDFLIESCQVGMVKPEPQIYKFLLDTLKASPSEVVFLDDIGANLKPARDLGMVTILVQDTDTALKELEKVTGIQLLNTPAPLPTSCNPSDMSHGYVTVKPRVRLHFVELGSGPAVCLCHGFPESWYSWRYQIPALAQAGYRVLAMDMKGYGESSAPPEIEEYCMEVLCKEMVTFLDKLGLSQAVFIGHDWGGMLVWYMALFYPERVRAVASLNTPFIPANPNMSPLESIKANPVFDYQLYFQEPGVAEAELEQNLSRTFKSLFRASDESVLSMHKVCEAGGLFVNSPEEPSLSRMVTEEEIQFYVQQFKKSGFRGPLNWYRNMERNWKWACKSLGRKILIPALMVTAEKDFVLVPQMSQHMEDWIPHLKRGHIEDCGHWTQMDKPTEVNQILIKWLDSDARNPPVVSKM
# [2] = Antiradical activity in nonenzymatic quinoid oxidation of adrenaline; conditions: adrenaline autoxidation without compound = 100%; initial concentration 25 µM
# Protocol: The antiradical activity of compounds 4a–g and 5a in the reaction of nonenzymatic quinoid oxidation of adrenaline (1-(3,4-dioxyphenyl)-2-methylaminoethanol) in alkaline bicarbonate buffer was evaluated. As a result of this reaction, not only the superoxide anion radical is formed, but also radicals of carbonate–bicarbonate anions, which makes it possible to reveal the total antiradical activity of potential antioxidants. […] Thus, we confirmed the antiradical activity of compounds 4a–g and 5a with respect to O2^–• generated in enzymatic and nonenzymatic model systems.
# SOD-protective activity of the biopreparation was the ability to utilize the superoxide anion radical O2^–•, as determined by the method of Sirota. A cytosolic fraction of the Russian sturgeon liver homogenate was used as the source of SOD. First, the sturgeon liver was washed with cold 0.2 M Tris (tris (hydroxymethyl) aminomethane) buffer (pH 7.8) to remove any traces of blood. All of the procedures were performed at a temperature of 0–4 °C. Next, a homogenate was obtained using a Potter homogenizer (Thomas Scientific, Swedesboro, NJ, USA) in 0.2 M Tris buffer at a ratio of 1:10. The homogenate was then centrifuged for 10 min at 1000× g to remove partially destroyed cells and nuclei. The resulting supernatant contained the enzymes of the cytosolic fraction of the liver homogenate, including the SOD. Here, 10 µL of the biopreparation was added to a cuvette with 200 µL of bicarbonate buffer (pH 10.65), 10 µL of the tested compound (initial concentrations of these compounds 25 µM) and 10 µL of 0.1% adrenaline solution and was thoroughly and quickly mixed. The rate of adrenaline oxidation without and in the presence of the biopreparation was evaluated by the change in optical density, measured at 347 nm for 3 min. The decrease in the rate of the process in the presence of the biopreparation was used to characterize the SOD-protective activity.
# [3] = DPPH radical scavenging activity; conditions: compound solution 0.2 mM in MeOH mixed 1:1 with 0.2 mM DPPH, 40 min, 20 °C
# Protocol: The free radical scavenging activity was evaluated using the stable radical 2,2-diphenyl-1-picrylhydrazyl (DPPH), according to the method described by Brand-Williams with a slight modification. Solutions of the compounds in MeOH were studied at a concentration of 0.2 mM. The stock DPPH solution contained 0.2 mM of radical in MeOH. An amount of 0.1 mL of the test compound solution was added to 0.1 mL of DPPH solution (0.2 mM) in each cell so that the initial DPPH concentration in the cells was 0.1 mM. The microplate was placed in a spectrophotometer, and the decrease in the absorbance values of the DPPH solution for 40 min at 20 °C was measured at λmax = 517 nm. The results were expressed as scavenging activity, calculated as follows: scavenging activity, % = [(A0 − A1)/A0] × 100, where A0 is the optical density of the control solution DPPH, and A1 is the optical density of the reaction mixture solution.
# [4] = Cupric reducing antioxidant capacity (CUPRAC); conditions: Trolox equivalents (Trolox = 1); compound 0.5 mM, 30 min
# From the text: To confirm the SET mechanism, the reducing activity of the compounds was studied using tests CUPRAC (Cupric-Reducing Antioxidant Capacity) and FRAP (Ferric ion-Reducing Antioxidant Power). Unlike the DPPH and ABTS tests, these methods are based only on the ability of substances to act as electron donors. It should be noted that the CUPRAC test has several advantages: the manifestation of activity at a pH close to the physiological value and a favorable redox potential; the method is applicable to both lipophilic and hydrophilic antioxidants. The antioxidant potential of the studied derivatives 4a–g and 5a is estimated in equivalents of the water-soluble analog of vitamin E—Trolox (TEAC—Trolox Equivalent Antioxidant Capacity), the activity of which is taken as the unit ([…] = 1, […] = 1).
# Neocuproine (2,9-dimethyl-1,10-phenanthroline) and Trolox were used with no further purification. The method proposed by Apak et al. was used with slight modifications. For these measurements, 0.05 mL of CuCl2 solution (0.01 M), 0.05 mL of MeOH neocuproine solution (7.5 mM) and 0.05 mL of ammonium acetate buffer solution (1 M) were added to a test tube, followed by mixing with the 0.05 mL tested compounds (0.5 mM). The mixtures were kept at room temperature for 30 min. The absorbance was measured at 450 nm against a reagent blank. The results were presented in Trolox equivalents (Trolox equivalent antioxidant capacity, TEAC) obtained using absorbance data, and the linear calibration curve was plotted as the absorbance vs. Trolox concentration.
# [5] = ABTS radical cation scavenging
# Protocol: Thus, at the further steps, the complex investigation of the target compounds’ ability to interact with protons, electrons, and radicals was conducted.
# [6] = kinetic fluorescent assay, means of three separate experiments, read-out: Human sEH IC50
Compound,"IC50 [1, 6]","% Inhibition, Antiradical Activity (O2–•) [2]",% Inhibition DPPH• [3],TEACCUPRAC [4],% Inhibition ABTS+• [5],"increase in the inhibitory activity ([1]; 4b versus 4a, one methylene group between adamantyl and selenourea)","IC50 ([1]; human sEH, read-out: IC50 (sEH))"
"[Se]=C(NCc1ccccc1)NC12CC3CC(CC(C3)C1)C2 [5a, 1-(Adamantan-1-yl)-3-benzylselenourea]",211 nM,43.79 ± 0.02%,59.45 ± 0.09%,1.62 ± 0.4,–,–,–
"[Se]=C(Nc1ccccc1)Nc1ccc(C23CC4CC(CC(C4)C2)C3)cc1 [4e, 1-[4-(Adamantan-1-yl)phenyl]-3-phenylselenourea]",55.4 nM,23.68 ± 0.03%,66.15 ± 0.56%,0.99 ± 0.05,–,–,–
"[Se]=C(Nc1ccccc1)NC1C2CC3CC(C2)CC1C3 (stereo not drawn) [4g, 1-(Adamantan-2-yl)-3-phenylselenourea]",104 nM,24.66 ± 1.33%,71.82 ± 1.10%,2.48 ± 0.16,47.21 ± 1.20%,–,–
"CC12CC3CC(C)(C1)CC(NC(=[Se])Nc1ccccc1)(C3)C2 [4f, 1-(3,5-Dimethyladamantan-1-yl)-3-phenylselenourea]",256 nM,20.95 ± 1.20%,58.35 ± 0.92%,0.22± 0.01,do not exhibit antiradical properties; also recorded: nonactive,–,–
"[Se]=C(NCC12CC3CC(CC(C3)C1)C2)Nc1ccccc1 [4b, 1-[(Adamantan-1-yl)methyl]-3-phenylselenourea]",131 nM,19.37 ± 0.88%,70.75 ± 1.10%,3.04 ± 0.11,53.01 ± 1.62%,3.3 fold,–
"[Se]=C(NCCC12CC3CC(CC(C3)C1)C2)Nc1ccccc1 [4d, 1-[2-(Adamantan-1-yl)ethyl]-3-phenylselenourea]",49.1 nM,9.97 ± 0.41%,70.90 ± 2.13%,3.29 ± 0.12,64.55 ± 2.30%,–,–
"CC(NC(=[Se])Nc1ccccc1)C12CC3CC(CC(C3)C1)C2 (stereo not drawn) [4c, 1-[1-(Adamantan-1-yl)ethyl]-3-phenylselenourea]",1210 nM,21.64 ± 2.29%,68.81 ± 1.69%,3.39 ± 0.11,77.44 ± 1.78%,–,1200 nM
"[Se]=C(Nc1ccccc1)NC12CC3CC(CC(C3)C1)C2 [4a, 1-(Adamantan-1-yl)-3-phenylselenourea]",436 nM,35.49 ± 0.03%,44.89 ± 0.04%,1.07 ± 0.11,–,–,–
